# The source made the active and inactive calls. The rule behind the calls is not given here.
# Legend:
# Format in all cases: functional
# [1] = molecular target: T1, Substance-K receptor (Cavia porcellus, UniProt Q64077); assay: Compound was evaluated for NK-2 receptor antagonistic activity in the guinea pig trachea; settings: read-out: pA2 (converted)
# T1 sequence (Q64077 whole entry): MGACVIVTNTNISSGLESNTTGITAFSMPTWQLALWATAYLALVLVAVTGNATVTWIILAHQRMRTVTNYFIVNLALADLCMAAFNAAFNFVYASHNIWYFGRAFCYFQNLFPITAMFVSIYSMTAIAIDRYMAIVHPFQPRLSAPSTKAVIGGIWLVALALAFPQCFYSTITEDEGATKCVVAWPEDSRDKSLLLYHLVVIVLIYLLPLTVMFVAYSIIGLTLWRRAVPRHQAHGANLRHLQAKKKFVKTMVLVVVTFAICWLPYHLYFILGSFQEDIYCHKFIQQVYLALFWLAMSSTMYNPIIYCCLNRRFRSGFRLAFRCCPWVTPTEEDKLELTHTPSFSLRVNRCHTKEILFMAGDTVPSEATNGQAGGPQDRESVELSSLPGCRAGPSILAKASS
# [2] = molecular target: T2, Neuromedin-K receptor (Cavia porcellus) (UniProt P30098); assay: Compound was evaluated for NK-3 receptor antagonistic activity in the guinea pig trachea; Inactive
# T2 sequence (whole entry): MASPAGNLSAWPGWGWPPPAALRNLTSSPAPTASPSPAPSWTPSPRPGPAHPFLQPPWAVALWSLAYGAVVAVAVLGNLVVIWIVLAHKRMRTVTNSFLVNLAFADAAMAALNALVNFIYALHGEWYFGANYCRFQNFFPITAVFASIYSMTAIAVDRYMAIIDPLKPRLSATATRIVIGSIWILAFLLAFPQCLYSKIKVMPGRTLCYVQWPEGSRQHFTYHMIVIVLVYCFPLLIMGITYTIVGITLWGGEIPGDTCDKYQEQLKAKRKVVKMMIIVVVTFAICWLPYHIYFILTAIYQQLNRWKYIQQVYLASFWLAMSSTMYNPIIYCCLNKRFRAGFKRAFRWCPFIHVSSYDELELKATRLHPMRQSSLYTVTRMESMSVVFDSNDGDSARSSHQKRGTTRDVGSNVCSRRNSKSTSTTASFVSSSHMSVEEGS
# [3] = molecular target: Substance-P receptor (Cavia porcellus) (UniProt P30547); assay: Compound was evaluated for NK-1 receptor antagonistic activity in the guinea pig trachea; Inactive
# Sequence of Substance-P receptor (Cavia porcellus) (P30547 whole entry): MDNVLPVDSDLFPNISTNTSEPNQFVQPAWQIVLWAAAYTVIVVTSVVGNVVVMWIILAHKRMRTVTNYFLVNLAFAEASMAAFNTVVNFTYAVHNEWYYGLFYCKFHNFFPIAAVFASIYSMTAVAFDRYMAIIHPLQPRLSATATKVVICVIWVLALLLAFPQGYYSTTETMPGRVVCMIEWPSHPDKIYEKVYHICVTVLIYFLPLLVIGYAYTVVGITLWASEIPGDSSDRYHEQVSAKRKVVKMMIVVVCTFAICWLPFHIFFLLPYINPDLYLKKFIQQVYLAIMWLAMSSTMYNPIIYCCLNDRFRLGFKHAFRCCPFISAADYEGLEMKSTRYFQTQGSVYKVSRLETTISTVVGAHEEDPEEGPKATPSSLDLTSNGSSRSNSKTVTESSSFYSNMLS
structure (smiles),measurement,setting,value
O=c1c2cnn(-c3ccccc3)c2nc2scc(-c3ccccc3)n12,Kb,[1],50.1 nM
same,pA2,[2],inactive
same,pA2,[3],inactive

# Source: ChEMBL document CHEMBL1128906, “Synthesis and NK-2 antagonist effect of 1,6-diphenyl-pyrazolo [3,4-d]-thiazolo[3,2-a]4H-pyrimidin-4-one” (Bioorg Med Chem Lett, 1996)
